Patent publication US11136615B2 (PROMEGA CORPORATION, priority 2017, dated 2021)

Legend:
Type in all cases: physicochemical
[1] = Effect of ATT on pro-luciferin stability (RP-HPLC); settings: 2-hydroxyethyl ester of luciferin methyl ether 1.0 mM, PBS pH 7.4, 5% DMSO, ATT 8.0 mM, 37° C., FIG. 4
Description: A stock solution of this compound in DMSO was added to PBS buffer at pH 7.4 to reach a final concentration at 1.0 mM and 5% DMSO. The mixture was incubated at 37° C., with or without ATT (Sigma, at a final concentration of 8.0 mM). Aliquots (20 μL) were taken out at various time points, diluted with H2O (180 μL), and analyzed by RP-HPLC. The percentages of the components were calculated based on UV absorbance at 330 nm.

[2] = Thermal stability (T80) of Ultra-Glo™-based ATP detection reagent; settings: 37° C.
Description: (FIG. 6). T80 (the storage time during which the complete ATP detection reagent produced ≥80% of the light output from the freshly made reagent), a parameter reflecting reagent thermal stability, was improved by 1 fold at 37° C. after addition of ATT. In particular, the T80 value in the absence of ATT (0 mM) was 4 days, whereas the T80 value in the presence of ATT (3 mM) was 8 days (FIG. 6A). Further, the combination of dehydroluciferin and ATT as additives further improved the reagent stability, increasing the T80 value to 18 days (FIG. 6B, at 3 mM ATT with 0.3 mM corresponding dehydro-compound).

[3] = Effect of ATT on pro-luciferin stability with or without TCEP (RP-HPLC); settings: 2-hydroxyethyl ester of luciferin methyl ether 1.0 mM, PBS pH 7.4, 5% DMSO, ATT 8.0 mM, TCEP 10 mM, 37° C., FIG. 5
Description: ATT was also shown to be compatible with additives that are commonly used in bioluminescence systems. […] The mixture was incubated at 37° C., with or without ATT (Sigma, at a final concentration of 8.0 mM), and with or without TCEP (Thermo Scientific, at a final concentration of 10 mM).

[4] = Effect of ATT on luciferin stability (RP-HPLC); settings: luciferins 1.0 mM, cationic detergent buffers pH 6.0, ATT 2.0 mM, 60° C., FIG. 3
Description: Representative luciferins were reconstituted (at final concentration of 1.0 mM) in buffers containing various cationic detergents at pH 6.0, with or without ATT (Sigma, at a final concentration of 2.0 mM). The mixture was incubated at 60° C. Aliquots (20 μL) were taken out at various time points, diluted with H2O (180 μL), and analyzed by RP-HPLC. The percentages of the components were calculated based on UV absorbance at 330 nm.

decomposition of the pro-luciferin compound [1]: slowed down
formation of the corresponding dehydroluciferin derivative [1]: reduced
T80 (storage time with ≥80% of the light output of freshly made reagent) ([2]; ATT 3 mM in complete ATP detection reagent, 4 days in the absence of ATT, FIG. 6A): 8 days
improvement of T80 after addition of ATT ([2]; complete ATP detection reagent): 1 fold
stability of the pro-luciferin compound in the presence of TCEP [3]: improved
dehydroluciferin formation [4]: reduced
luciferin thermal stability [4]: improved
SMILES: Cc1n[nH]c(=S)[nH]c1=O [ATT, 6-methyl-3-thioxo-3,4-dihydro-1,2,4-triazin-5(2H)-one]
